The values below come from publication PMC4285233 (Molecular Microbiology, 2014).

Structures are written as SMILES.

Assay [1] has as its target T1, Gap1 (general amino acid permease) (Saccharomyces cerevisiae, UniProt P19145).
T1 sequence (P19145 1-602): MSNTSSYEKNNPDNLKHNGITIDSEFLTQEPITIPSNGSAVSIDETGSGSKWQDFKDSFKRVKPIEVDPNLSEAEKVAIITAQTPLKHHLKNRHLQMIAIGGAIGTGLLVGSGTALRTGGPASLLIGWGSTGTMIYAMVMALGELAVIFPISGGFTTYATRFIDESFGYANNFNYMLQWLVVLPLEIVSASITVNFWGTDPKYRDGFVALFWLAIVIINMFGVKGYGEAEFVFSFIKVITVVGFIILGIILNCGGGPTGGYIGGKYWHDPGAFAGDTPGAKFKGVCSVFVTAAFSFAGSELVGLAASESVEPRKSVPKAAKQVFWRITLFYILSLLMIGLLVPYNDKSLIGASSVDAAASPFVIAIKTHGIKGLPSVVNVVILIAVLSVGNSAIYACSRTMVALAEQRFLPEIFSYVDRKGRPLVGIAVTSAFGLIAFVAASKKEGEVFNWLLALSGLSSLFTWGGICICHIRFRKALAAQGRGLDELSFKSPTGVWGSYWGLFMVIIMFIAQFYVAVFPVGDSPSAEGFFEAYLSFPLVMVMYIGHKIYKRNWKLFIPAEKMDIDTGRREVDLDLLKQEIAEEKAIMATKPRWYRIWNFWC
Description: inhibition of L-citrulline uptake in intact yeast. In kind it is cell-based.

Assay [2] addresses T1, Gap1 (general amino acid permease). Description: inhibition of […]-L-citrulline uptake in intact yeast. In kind it is cell-based.

In the case of `N[C@H](Cc1c[nH]cn1)C(=O)O` [D-histidine], the “inhibition of L-citrulline uptake in intact yeast (Fig. S6B, C)” value in assay [1] is “Moreover they are acting largely as competitive inhibitors of L-citrulline transport (Fig. S6B and C)”.
As for `N[C@@H](Cc1c[nH]cn1)C(=O)O` [L-histidine], in assay [2], the Ki – broadly, the dissociation constant of the complex between target and ligand, obtained from inhibition or displacement – was 2.5 µM.
Same read-out and setting: under `NCCCC[C@H](N)C(=O)O` [L-lysine] stands 9.5 µM.
In assay [2], `N[C@@H](Cc1c[nH]c2ccccc12)C(=O)O` [L-tryptophan] gave a Ki of 3.3 µM.
Take `NCCC(=O)O` [β-alanine]: the “inhibition of L-citrulline uptake in intact yeast (Fig. S6B, C)” value in assay [1] is “Moreover they are acting largely as competitive inhibitors of L-citrulline transport (Fig. S6B and C)”.
